# Assay results published in ChEMBL document CHEMBL1129817, “Novel water-soluble analogues retaining potent antitumor activity of RA-VII, a cyclic hexapeptide from Rubia plants” (Bioorg Med Chem Lett, 1997).
# “And” between values parts separate entries of the source, which are not always exact repeats. Equal values may be shown once.
# Key:
# B16 [1] = assay: Compound was evaluated for percent tumor volume against B16 melanoma in mice (T) at 1.6 mg/kg intravenous administration after 11 days ot that of control (C); type: functional, Mus musculus
# B16 [2] = assay: Compound was evaluated for percent tumor volume against B16 melanoma in mice (T) at 1.6 mg/kg intravenous administration after 13 days ot that of control (C); type: functional, Mus musculus
# B16 [3] = assay: Compound was evaluated for percent tumor volume against B16 melanoma in mice (T) at 1.6 mg/kg intravenous administration after 8 days ot that of control (C); type: functional, Mus musculus
# B16 [4] = assay: Compound was evaluated for percent tumor volume against B16 melanoma in mice (T) at 3.13 mg/kg intravenous administration after 11 days ot that of control (C); type: functional, Mus musculus
# B16 [5] = assay: Compound was evaluated for percent tumor volume against B16 melanoma in mice (T) at 3.13 mg/kg intravenous administration after 13 days ot that of control (C); type: functional, Mus musculus
# B16 [6] = assay: Compound was evaluated for percent tumor volume against B16 melanoma in mice (T) at 3.13 mg/kg intravenous administration after 8 days ot that of control (C); type: functional, Mus musculus
# Colon 26 [7] = assay: Compound was evaluated for percent tumor volume against colon 26 cells in mice (T) at a dose of 1.6 mg/kg intravenous administration after 10 days ot that of control (C); type: functional, Mus musculus
# Colon 26 [8] = assay: Compound was evaluated for percent tumor volume against colon 26 cells in mice (T) at a dose of 1.6 mg/kg intravenous administration after 12 days ot that of control (C); type: functional, Mus musculus
# Colon 26 [9] = assay: Compound was evaluated for percent tumor volume against colon 26 cells in mice (T) at a dose of 1.6 mg/kg intravenous administration after 8 days ot that of control (C); type: functional, Mus musculus
# Colon 26 [10] = assay: Compound was evaluated for percent tumor volume against colon 26 cells in mice (T) at a dose of 6.25 mg/kg intravenous administration after 12 days ot that of control (C); type: functional, Mus musculus
# Colon 26 [11] = assay: Compound was evaluated for percent tumor volume against colon 26 cells in mice (T) at a dose of 6.25 mg/kg intravenous administration after 8 days ot that of control (C); type: functional, Mus musculus
# Colon 26 [12] = assay: Compound was evaluated for percent tumor volume against colon 26 cells in mice (T) at a dose of 3.13 mg/kg intravenous administration after 10 days ot that of control (C); type: functional, Mus musculus
# Colon 26 [13] = assay: Compound was evaluated for percent tumor volume against colon 26 cells in mice (T) at a dose of 3.13 mg/kg intravenous administration after 12 days ot that of control (C); type: functional, Mus musculus
# Colon 26 [14] = assay: Compound was evaluated for percent tumor volume against colon 26 cells in mice (T) at a dose of 3.13 mg/kg intravenous administration after 8 days ot that of control (C); type: functional, Mus musculus
# Colon 26 [15] = assay: Compound was evaluated for percent tumor volume against colon 26 cells in mice (T) at a dose of 6.25 mg/kg intravenous administration after 10 days ot that of control (C); type: functional, Mus musculus
# P388 [16] = assay: Percentage of the median survival time of P388 leukemic mice (T) at intraperitoneal administration of 0.4 mg/kg dose to that of controls (C); type: functional, Mus musculus
# P388 [17] = assay: Percentage of the median survival time of P388 leukemic mice (T) at intraperitoneal administration of 0.8 mg/kg dose to that of controls (C); type: functional, Mus musculus
# P388 [18] = assay: Percentage of the median survival time of P388 leukemic mice (T) at intraperitoneal administration of 1.6 mg/kg dose to that of controls (C); type: functional, Mus musculus
# P388 [19] = assay: Percentage of the median survival time of P388 leukemic mice (T) at intraperitoneal administration of 3.13 mg/kg dose to that of controls (C); type: functional, Mus musculus
# KB = assay: Compound was evaluated for cytotoxicity against human epidermoid carcinoma of nasopharynx (KB) cells; type: functional, cell-based
# Colon 26 [20] = assay: Compound was evaluated for percent tumor volume against colon 26 cells in mice (T) at a dose of 0.8 mg/kg intravenous administration after 10 days ot that of control (C); type: functional, Mus musculus
# Colon 26 [21] = assay: Compound was evaluated for percent tumor volume against colon 26 cells in mice (T) at a dose of 0.8 mg/kg intravenous administration after 12 days ot that of control (C); type: functional, Mus musculus
# Colon 26 [22] = assay: Compound was evaluated for percent tumor volume against colon 26 cells in mice (T) at a dose of 0.8 mg/kg intravenous administration after 8 days ot that of control (C); type: functional, Mus musculus
# P388 [23] = assay: Percentage of the median survival time of P388 leukemic mice (T) at intraperitoneal administration of 6.25 mg/kg dose to that of controls (C); type: functional, Mus musculus
# [24] = test system: KATO III stomach cancer cell line; assay: Compound was evaluated for cytotoxicity against KATO-III gastric carcinoma cells; type: functional, cell-based; details: Homo sapiens
# L1210 = assay: Compound was evaluated for cytotoxicity against L1210 leukemia cells; type: functional, cell-based; details: Mus musculus
structure (smiles),measurement,setting,value
COc1ccc(C[C@H]2C(=O)N[C@@H](C)C(=O)N(C)[C@H]3Cc4cccc(c4)Oc4cc(ccc4OC)C[C@@H](C(=O)N[C@H](C)C(=O)N[C@@H](C)C(=O)N2C)N(C)C3=O)cc1,T/C,B16 [1],62.4%
same,T/C,B16 [2],85.1%
same,T/C,B16 [3],65.8%
same,T/C,B16 [4],55.5%
same,T/C,B16 [5],49.9%
same,T/C,B16 [6],60%
same,T/C,Colon 26 [7],72.8%
same,T/C,Colon 26 [8],88%
same,T/C,Colon 26 [9],55.8%
same,T/C,Colon 26 [10],78%
same,T/C,Colon 26 [11],49%
same,T/C,Colon 26 [12],60.9%
same,T/C,Colon 26 [13],85.6%
same,T/C,Colon 26 [14],48%
same,T/C,Colon 26 [15],50.3%
same,T/C,P388 [16],144%
same,T/C,P388 [17],144%
same,T/C,P388 [18],152%
same,T/C,P388 [19],163%
CCN(CCOc1ccc2cc1Oc1cccc(c1)C[C@H]1C(=O)N(C)[C@@H](C2)C(=O)N[C@H](C)C(=O)N[C@@H](C)C(=O)N(C)[C@@H](Cc2ccc(OC)cc2)C(=O)N[C@@H](C)C(=O)N1C)c1ccccc1 [listing 1 of 2 here],IC50,KB,9.9 ng/mL
COc1ccc(C[C@H]2C(=O)N[C@@H](C)C(=O)N(C)[C@H]3Cc4cccc(c4)Oc4cc(ccc4OCCN(C(C)C)C(C)C)C[C@@H](C(=O)N[C@H](C)C(=O)N[C@@H](C)C(=O)N2C)N(C)C3=O)cc1 [listing 1 of 2 here],T/C,B16 [1],43.3%
same,T/C,B16 [2],69.7%
same,T/C,B16 [3],55.9%
same,T/C,B16 [4],32.1%
same,T/C,B16 [6]; 3.13 mg/kg,57.5% and 32.1%
same,T/C,Colon 26 [20],83.4%
same,T/C,Colon 26 [21],136.3%
same,T/C,Colon 26 [7],57.1%
same,T/C,Colon 26 [8],143.1%
same,T/C,Colon 26 [9],41.5%
same,T/C,Colon 26 [22],42.1%
same,T/C,Colon 26 [12],38.5%
same,T/C,Colon 26 [13],99.6%
same,T/C,Colon 26 [14],34.5%
same,T/C,P388 [16],151%
same,T/C,P388 [18],157%
same,T/C,P388 [23],170%
CCN(CCOc1ccc2cc1Oc1cccc(c1)C[C@H]1C(=O)N(C)[C@@H](C2)C(=O)N[C@H](C)C(=O)N[C@@H](C)C(=O)N(C)[C@@H](Cc2ccc(OC)cc2)C(=O)N[C@@H](C)C(=O)N1C)c1ccccc1 [listing 2 of 2 here],T/C,P388 [16],116%
same,T/C,P388 [18],133%
same,T/C,P388 [23],150%
COc1ccc(C[C@H]2C(=O)N[C@@H](C)C(=O)N(C)[C@H]3Cc4cccc(c4)Oc4cc(ccc4OCCN4CCCC4)C[C@@H](C(=O)N[C@H](C)C(=O)N[C@@H](C)C(=O)N2C)N(C)C3=O)cc1,T/C,P388 [16],112%
same,T/C,P388 [18],124%
same,T/C,P388 [23],134%
COc1ccc(C[C@H]2C(=O)N[C@@H](C)C(=O)N(C)[C@H]3Cc4cccc(c4)Oc4cc(ccc4OCCN4CCCCC4)C[C@@H](C(=O)N[C@H](C)C(=O)N[C@@H](C)C(=O)N2C)N(C)C3=O)cc1,IC50,KB,8.7 ng/mL
CCN(CC)CCOc1ccc2cc1Oc1cccc(c1)C[C@H]1C(=O)N(C)[C@@H](C2)C(=O)N[C@H](C)C(=O)N[C@@H](C)C(=O)N(C)[C@@H](Cc2ccc(OC)cc2)C(=O)N[C@@H](C)C(=O)N1C,T/C,P388 [16],116%
same,T/C,P388 [18],124%
same,T/C,P388 [23],136%
COc1ccc(C[C@H]2C(=O)N[C@@H](C)C(=O)N(C)[C@H]3Cc4cccc(c4)Oc4cc(ccc4OCCN(C)C)C[C@@H](C(=O)N[C@H](C)C(=O)N[C@@H](C)C(=O)N2C)N(C)C3=O)cc1,IC50,[24],79 ng/mL
same,IC50,L1210,18 ng/mL
same,IC50,KB,25 ng/mL
COc1ccc(C[C@H]2C(=O)N[C@@H](C)C(=O)N(C)[C@H]3Cc4cccc(c4)Oc4cc(ccc4OCCN(C(C)C)C(C)C)C[C@@H](C(=O)N[C@H](C)C(=O)N[C@@H](C)C(=O)N2C)N(C)C3=O)cc1 [listing 2 of 2 here],IC50,[24],1.5 ng/mL
same,IC50,L1210,4.5 ng/mL
same,IC50,KB,4.6 ng/mL
